This note sets out measurements from patent US4880817A, “O-functionalized derivatives of substituted isoquinolin-3-ols having cardiotonic and/or phosphodiesterase fraction III inhibiting properties and/or renal vasodilating properties” (Ortho Pharmaceutical Corporation, priority 1987, dated 1989).

Read-outs that look alike come from different tables or passages of the source.

Experiment [1] concerns adult mongrel dogs. In words: Renal vasodilating activity in anesthetized dogs. Type of experiment: in vivo, mongrel dog. As to conditions: Canis lupus familiaris. Here is the method:
Goldberg et al., J. Pharmacol. Exp. Ther., 163, 188 (1968), performed an investigation of the structural requirements for dopamine-like renal vasodilation of phenethylamines and apomorphine. The following procedure is a variation of the assay described in that report.
Adult mongrel dogs were anesthetized and surgically prepared for electromagnetic measurement of renal artery blood flow. A carotid artery was cannulated for measuring arterial blood pressure and drugs were administered intravenously or intraarterially (via the renal artery). Heart rate was monitored with a cardiotachometer. Renal vascular resistance was calculated as the ratio of mean arterial blood pressure to renal artery blood flow. Dopamine was infused intravenously at 3 μg/kg/min for ten minutes (at an infusion rate of about 1 ml/min) to determine responsiveness of each dog to renal dopamine receptor stimulation. Cumulative dose-response data were obtained by infusing a compound of this invention at progressively increasing (usually three-fold) infusion rates, each dose being infused for five minutes. The maximum percent change from pre-drug control in renal artery blood flow (or in renal vascular resistance) was determined for each infusion dose.
RBF, RVR, MABP, and HR values are percent changes in renal blood flow, renal vascular resistance, mean arterial blood pressure, and heart rate, respectively, relative to control values.

Experiment [2] has as its target T1, Phosphodiesterase Fraction III (Canis lupus familiaris, UniProt A0A8I3NYE0).
T1 construct: The fraction III enzyme was isolated as an isomzyme from the crude canine heart homogenate; from tissue; host or cells: canine heart (crude homogenate, ion exchange chromatography)
T1 sequence (A0A8I3NYE0 1-1135): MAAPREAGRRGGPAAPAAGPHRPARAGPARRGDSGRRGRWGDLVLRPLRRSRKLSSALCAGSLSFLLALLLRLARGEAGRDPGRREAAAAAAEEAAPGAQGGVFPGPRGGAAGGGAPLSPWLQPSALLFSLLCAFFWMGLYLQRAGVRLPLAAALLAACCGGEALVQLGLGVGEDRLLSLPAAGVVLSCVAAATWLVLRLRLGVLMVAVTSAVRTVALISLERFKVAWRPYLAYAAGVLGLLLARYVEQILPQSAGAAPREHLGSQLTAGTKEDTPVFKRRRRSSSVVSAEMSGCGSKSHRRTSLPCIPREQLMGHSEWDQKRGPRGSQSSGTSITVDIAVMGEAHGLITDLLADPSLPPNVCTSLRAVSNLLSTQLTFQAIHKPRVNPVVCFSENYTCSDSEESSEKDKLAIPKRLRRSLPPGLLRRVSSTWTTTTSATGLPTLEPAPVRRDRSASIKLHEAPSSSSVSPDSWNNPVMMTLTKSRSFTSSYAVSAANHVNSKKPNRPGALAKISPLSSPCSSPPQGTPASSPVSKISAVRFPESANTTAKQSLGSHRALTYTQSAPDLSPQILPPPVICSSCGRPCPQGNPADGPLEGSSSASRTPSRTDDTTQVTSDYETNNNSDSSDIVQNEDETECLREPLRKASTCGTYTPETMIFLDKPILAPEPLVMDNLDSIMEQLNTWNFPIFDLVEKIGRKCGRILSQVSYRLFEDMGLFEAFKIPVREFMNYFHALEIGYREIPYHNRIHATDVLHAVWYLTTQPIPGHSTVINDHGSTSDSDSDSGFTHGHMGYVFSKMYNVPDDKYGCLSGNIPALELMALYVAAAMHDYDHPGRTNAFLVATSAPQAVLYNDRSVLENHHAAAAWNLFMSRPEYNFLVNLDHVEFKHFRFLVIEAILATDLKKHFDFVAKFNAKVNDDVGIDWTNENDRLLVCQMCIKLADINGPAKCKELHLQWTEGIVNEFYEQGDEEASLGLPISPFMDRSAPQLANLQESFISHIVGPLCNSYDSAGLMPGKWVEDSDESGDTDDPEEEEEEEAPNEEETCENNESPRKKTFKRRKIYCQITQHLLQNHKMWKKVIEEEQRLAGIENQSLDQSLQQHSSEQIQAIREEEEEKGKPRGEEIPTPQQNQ
In words: Inhibition of phosphodiesterase fraction III activity. Type of experiment: biochemical, canine. The procedure: Thompson et al. described a cyclic nucleotide phosphodiesterase assay in Advances in Cyclic Nucleotide Research, Brooker et al., eds., 10, 69-92 (1979). The following procedure is based on that published assay and measures the ability of compounds to inhibit cyclic nucleotide phosphodiesterase which is an enzyme that converts either cyclic AMP or cyclic GMP to the noncyclized AMP or GMP, respectively.
Compounds were tested at various concentrations in the presence of cyclic AMP (0.10-1.0 μM containing 0.2 microCuries ^3 H-cyclic AMP), cyclic nucleotide phosphodiesterase, and 0.05M Tris-Cl buffer (pH 7.4, containing 5 mM magnesium chloride). After a specified time, the reaction was stopped by heating to 100° C. for 1 minute. After cooling, 0.10 ml of a solution containing snake venom (1 mg/ml) was added, and the reaction was allowed to proceed for 30 min. Termination of this reaction was accomplished by the addition of 1.0 ml of 33 percent DOWEX AGl×8 resin slurry (Dow Chemical Co., Midland, MI) to separate the product from the unconverted substrate. An aliquot was removed from the supernatant and analyzed by liquid scintillation spectrometry.
The fraction III enzyme was isolated as an isomzyme from the crude canine heart homogenate by ion exchange chromatography. The enzyme activity was designated fraction III since it is the third and last phosphodiesterase activity to be eluted from the chromatographic column. The fraction III enzyme has a relatively high affinity and specificity for the cyclic AMP.
Data are presented as the IC50 which is the concentration (in micromoles) of a compound that was required to inhibit 50 percent of the cyclic nucleotide phosphodiesterase activity.

Experiment [3] relates to adult mongrel dogs. As to the kind of experiment: Acute in vivo cardiotonic activity in anesthetized dogs. More on the design: species or system mongrel dog. The note with it: Canis lupus familiaris, dose 1.87 mpk, iv, relative to controls. Here is the method:
The acute in vivo cardiotonic activity of compounds prepared according to the present invention was determined according to a modification of the procedure described by Alousi et al., Circ.
In particular, adult mongrel dogs were anesthetized with sodium pentobarbital and were artificially respired. Arterial pressure was monitored via a femoral artery, and the pulse pressure was used to trigger a cardiotachometer for heart rate. Left ventricular pressure was determined with a Millar catheter, and dP/dT (the change in ventricular pressure with time) was derived. Cardiac output was determined by measuring ascending aortic blood flow with an electromagnetic flow probe, and myocardial contractile force was measured with a Walton Brodie strain gauge sutured to the right ventricle. Lead II EKG was also recorded.
A standard dose (10 μg/kg/min) of dopamine was administered to assess myocardial responsiveness.
Compounds of the invention were administered by intravenous infusion and the effects on cardiovascular parameters were determined.

Setting [4] is: dose 6.2 mpk, relative to controls, read-out: HR: percent change in heart rate.
[5] abbreviates: dose 6.2 mpk, relative to controls, read-out: MABP: percent change in mean arterial blood pressure.
Where [6] appears, read: dose 6.2 mpk, relative to controls, read-out: RBF: percent change in renal blood flow.
The mark [7] stands for this setting: dose 6.2 mpk, relative to controls, read-out: RVR: percent change in renal vascular resistance.
Setting [8] is: cyclic AMP 0.10-1.0 μM, pH 7.4, enzyme from canine heart homogenate, read-out: IC50.
Setting [9] is: read-out: HR: percent change in heart rate, dose 1.2 mpk, relative to controls.
[10] abbreviates: read-out: MABP: percent change in mean arterial blood pressure, dose 1.2 mpk, relative to controls.
The mark [11] stands for this setting: read-out: RBF: percent change in renal blood flow, dose 1.2 mpk, relative to controls.
[12] abbreviates: read-out: RVR: percent change in renal vascular resistance, dose 1.2 mpk, relative to controls.
[13] abbreviates: read-out: CF: percent change in cardiac force.
[14] abbreviates: read-out: HR: percent change in heart rate.
Where [15] appears, read: read-out: MABP: percent change in mean arterial blood pressure.
The mark [16] stands for this setting: read-out: dP/dT: maximum percent change in left ventricular pressure with time.

For the compound `CCOc1cc2c([N+](=O)[O-])c(OC(C)=O)nc(C)c2cc1OC` [Cmpd 21], the change in vivo at 6.2 mg/kg is 38% with adult mongrel dogs [1] (setting [4]), 3% with adult mongrel dogs [1] (setting [5]), 40% in the experiment on adult mongrel dogs [1] (setting [6]) and -25% in the experiment with adult mongrel dogs [1] (setting [7]). In addition, the IC50 in experiment [2] (setting [8]) came out at 14 µM.
As to `CCOc1cc2c(C)nc(OC(=O)N3CCNCC3)c([N+](=O)[O-])c2cc1OC` [Cmpd 71], inhibition in experiment [2] was half-maximal at 22 µM (IC50).
Consider `CCOc1nc(C)c2cc(OC)c(OC)cc2c1C(=O)OC` [Cmpd 19, 4-Carbomethoxy-3-ethoxy-6,7-dimethoxy-1-methylisoquinoline], for which the IC50 in experiment [2] (setting [8]) stood at 42 µM.
Same read-out and setting: next, `COc1cc2c(C)nc(OS(=O)(=O)N(C)C)c(N)c2cc1OC` [Cmpd 63]: 185 µM; `COC(=O)c1c(OC(C)C)nc(C)c2cc(OC)c(OC)cc12` [Cmpd 18]: 225 µM.
For the compound `CCOc1cc2c(C)nc(OS(=O)(=O)N(C)C)c([N+](=O)[O-])c2cc1OC` [Cmpd 26], the change in vivo at 6.2 mg/kg with adult mongrel dogs [1] (setting [4]) is 0%; in the experiment with adult mongrel dogs [1] (setting [5]) it was 0%; in the experiment on adult mongrel dogs [1] (setting [6]) it was 7%; with adult mongrel dogs [1] (setting [7]), -8%. Also, the IC50 in experiment [2] (setting [8]) is 20.5 µM.
On to `CCOc1cc2c(C)nc(OC(=O)C(C)(C)C)c([N+](=O)[O-])c2cc1OC` [Cmpd 9], for which the change in vivo at 6.2 mg/kg in the experiment on adult mongrel dogs [1] (setting [4]) was 0%; in the experiment with adult mongrel dogs [1] (setting [5]), -26%; in the experiment with adult mongrel dogs [1] (setting [6]) it was 43%; with adult mongrel dogs [1] (setting [7]), -48%. Also, the concentration for half-maximal inhibition (IC50) in experiment [2] (setting [8]) came to 100 µM.
Take `C=CCNC(=O)Nc1c(OC(=O)N(CC)CC)nc(C)c2cc(OCC)c(OC)cc12` [Cmpd 74]: the change in vivo at 1.2 mg/kg in the experiment with adult mongrel dogs [1] (setting [9]) is -16%; in the experiment with adult mongrel dogs [1] (setting [10]), -2%; in the experiment on adult mongrel dogs [1] (setting [11]), 15%; in the experiment on adult mongrel dogs [1] (setting [12]) it was -14%. Besides, in experiment [2], the IC50 was found to be 115 µM.
Take `CCOc1cc2c(C)nc(OC(C)=O)c([N+](=O)[O-])c2cc1OC` [Cmpd 3]: the change in vivo at 6.2 mg/kg in the experiment on adult mongrel dogs [1] (setting [4]) is 2%; in the experiment with adult mongrel dogs [1] (setting [5]), -6%; in the experiment on adult mongrel dogs [1] (setting [6]) it was 61%; in the experiment with adult mongrel dogs [1] (setting [7]) it was -41%. Besides, in experiment [2] (setting [8]), the IC50 came to 6 µM.
In the case of `COc1cc2c(C)nc(OC(=O)N3CCNCC3)c([N+](=O)[O-])c2cc1OC` [Cmpd 70, 6,7-Dimethoxy-1-methyl-4-nitro-3-(1-piperazinyl)carbonyloxyisoquinoline], the change in vivo at 1.2 mg/kg in the experiment on adult mongrel dogs [1] (setting [9]) was 20%; in the experiment with adult mongrel dogs [1] (setting [10]), -1%; in the experiment with adult mongrel dogs [1] (setting [11]) it was 26%; in the experiment with adult mongrel dogs [1] (setting [12]) it was -19%. In experiment [2], this compound came in with an IC50 of 78 µM.
For the compound `CCOc1cc2c(C)nc(OC(=O)N(CC)CC)c(N)c2cc1OC` [Cmpd 44], the IC50 in experiment [2] (setting [8]) worked out at 180 µM.
Regarding `CCN(CC)C(=O)Oc1nc(C)c2cc(OC)c(OC)cc2c1[N+](=O)[O-]` [Cmpd 27, 3-Diethylcarbamyloxy-6,7-dimethoxy-1-methyl-4-nitroisoquinoline], the change in vivo at 6.2 mg/kg is 13% with adult mongrel dogs [1] (read-out: HR: percent change in heart rate, dose 6.2 mpk, relative to controls); -12% in the experiment with adult mongrel dogs [1] (read-out: MABP: percent change in mean arterial blood pressure, dose 6.2 mpk, relative to controls); -30% with adult mongrel dogs [1] (read-out: RVR: percent change in renal vascular resistance, dose 6.2 mpk, relative to controls). For the same compound, the change in vivo at 1.87 mg/kg with adult mongrel dogs [3] (setting [13]) was 87%; in the experiment with adult mongrel dogs [3] (setting [14]) it was 46%; with adult mongrel dogs [3] (setting [15]), 17%; in the experiment on adult mongrel dogs [3] (setting [16]), 41%.
Consider `COc1cc2c(C)nc(OC(=O)C(C)(C)C)c([N+](=O)[O-])c2cc1OC` [Cmpd 12], for which the change in vivo at 6.2 mg/kg is 12% in the experiment with adult mongrel dogs [1] (setting [4]), 38% with adult mongrel dogs [1] (setting [6]) and -26% in the experiment with adult mongrel dogs [1] (setting [7]). The change in vivo at 1.87 mg/kg in the experiment with adult mongrel dogs [3] (setting [13]) was 70%; in the experiment on adult mongrel dogs [3] (setting [14]), 14%; with adult mongrel dogs [3] (setting [15]), -10%; with adult mongrel dogs [3] (setting [16]), 51%.
Turning to `COc1cc2c(C)nc(OS(=O)(=O)N(C)C)c(N)c2cc1OC` [Cmpd 43], the IC50 in experiment [2] (setting [8]) was 34 µM.
